# Test results published in patent publication US4939175A, “Use of N,N-dimethyl-1-[1-(4-chlorophenyl)cyclobutyl]-3-methylbutylamine” (priority 1988, dated 1990).
# What was measured:
# [1] = tested on: spontaneous movement of mice; experiment: Spontaneous movement of mice; parameters: species or system SlC:ddy male mice; details: mouse, in vivo
# Description: Effect of the test samples on the sponteneous movement of mice
# The test sample was administered orally to SlC:ddy male mice. Immediately after, the amount of movement activity of the test mice was measured for 16 hours, at the time of 1, 2, 4, 8 and 16 hours respectively after the oral administration, by means of spontaneous movement measuring system (displacement measuring type).
# Methamphetamine was used as the reference drug and distilled water was used as control sample.
# The obtained results are shown in FIG. 1, columns and bars represent the mean±S.D. and statistical significance was evaluated by the multiple comparison test of Dunnet's type.
# [2] = Japanese Unexamined Patent Publication No. 181,043 (1982); cited from earlier work
# [3] = tested on: dopamine neuron, norepinephrine and serotonin neuron; experiment: Activation of dopamine, norepinephrine and serotonin neuron
# memory and learning = experiment: Effect on memory and learning in preclinical studies; type: in vivo
compound,measurement,setting,value
"CC(C)CC(N(C)C)C1(c2ccc(Cl)cc2)CCC1 (centres unmarked) [N,N-dimethyl-1-[1-(4-chlorophenyl)cyclobutyl]-3-methylbutylamine]",spontaneous movement,[1],increase of spontaneous movement
same,therapeutical effect as an antidepressant,[2],has a therapeutical effect as an antidepressant
same,activation of dopamine neuron in addition to both norepinephrine and serotonin neuron,[3],intensive activation of dopamine neuron in addition to both norepinephrine and serotonin neuron
same,effect on dopamine activity,[3],enhancing effect of dopamine activity
same,effect on memory and learning,memory and learning,intensive effect on memory and learning
